Data reported in US11278550B2, “Compositions and methods for the treatment of Prader-Willi syndrome” (Duke University, priority 2016, dated 2022).
Entries after “also recorded” stand apart in the source; their conditions may differ.

Legend:
human PWS fibroblasts [1] = experiment: Western blot of SNRPN protein in human PWS fibroblasts; assay type: cell-based; conditions: 4 μM, 72 hr
[2] = tested on: human PWS fibroblast cells; experiment: Cell viability (CellTox Green Cytotoxicity Assay); assay type: cell-based; conditions: 1-4 μM, 72 hours
Protocol: Cell viability was measured by fluorescence using CellTox™ Green Cytotoxicity Assay (Promega, cat. no. G8741) according to the manufacturer's instructions.

PWS-IC [3] = experiment: Bisulfite genomic sequencing of PWS-IC, human PWS cells; assay type: cell-based
Protocol: (§1) Genomic DNA was isolated from human PWS fibroblasts or mouse tissues. DNA (1 μg) was then treated by bisulfite using the Epi-Tect bisulfite kit (Qiagen), and 125 ng input DNA was used per PCR amplification. PCR products were sub-cloned into pGEM-T easy vector (Promega) and an average of 15 clones were sequenced. DNA sequencing results were analyzed using BISMA web-based analysis platform with a setting for individual clones with <95% bisulfite conversion and <90% sequence identity to be excluded in the analysis.

human PWS fibroblasts [4] = experiment: Chromatin accessibility assay; assay type: cell-based; conditions: vs vehicle-treated controls
Protocol: Chromatin accessibility assay was performed to investigate whether G9a inhibitors change open/close state of the imprinted cluster in the PWS-IC region according to Pai, C.C., et al. Nature communications 5, 4091 (2014) with slight modifications. Briefly, 3 days after drug treatment in human PWS fibroblasts, the cells were harvested and lysed with lysis buffer (0.5% NP-40, 15 mM Tris-HCl [pH 7.4], 0.15 mM Spermidine, 0.5 mM Spermine, 15 mM NaCl, 60 mM KCl, 1 mM DTT, 0.1 mM PMSF, 0.5M Sucrose, Protease and Phosphatase inhibitor cocktail (Roche)). The lysed cells were collected by centrifugation (3000 RPM/10 min/4° C.) and rinsed with digestive buffer (15 mM Tris-HCl [pH 7.4], 15 mM NaCl, 60 mM KCl, 4 mM MgCl2, 1 mM DTT, 0.1 mM PMSF, 0.35M Sucrose). After rinsing the cell pellets, MNase (NEB) was added to digest open status of chromatins, followed by genomic qPCR to determine changes in amount of SNRPN and other imprinted genes.

m+/pΔS-U and WT mice = experiment: Toxicity evaluation in mice (body weight, neurological screening, blood, histopathology); assay type: in vivo, mouse
Protocol: Brain, liver, lung, kidney and heart tissues from 3-month-old mice were fixed in 10% neutral buffered formalin (NBF: 10 ml of Formalin (37% stock), 90 ml of deionized water, 4 g/liter of NaH2PO4, 6.5 g/liter Na2HPO4), embedded in paraffin, sectioned at 5 μm, stained with hematoxylin and eosin, and images examined by a board-certified toxicological pathologist.
Blood was collected from 3-month-old mice into microcontainers or hematology assay tubes using jugular vein bleeding puncture. A serum metabolic panel was obtained using the Heska Dry Chem analyzer (Cuattro Veterinary USA). The metabolic panel contained chem and electrolyte, liver and kidney functions. For hematology analysis, we tested whole blood using Procyte (IDEXX).
General health of mice was evaluated using a modified version of standard test battery for behavioral phenotyping (see 57). Observational assessment included the evaluation of body weight, body core temperature, overt behavioral signs (coat appearance, body posture and secretary signs) and sensory functions (visual ability, audition, tactile percep- tion and vestibular function). Table 6 indicates the mouse sex and age information.

[5] = tested on: adult Snrpn-EGFP mouse model; experiment: Long-lasting unsilencing in adult Snrpn-EGFP mice; assay type: in vivo; conditions: 1, 4, and 12 weeks after the last dose; brain
Protocol: For testing long lasting drug effects, the 6 week-old m^S-EGFP/p^+ mice were treated daily by i.p. injection for seven consecutive days.
For reverse-transcription PCR (RT-PCR) and quantitative real time RT-PCR (qRT-PCR), first total RNA was extracted from the fibroblasts and/or collected tissues (liver and brain) using Direct-zol RNA Miniprep kit (Zymo Research cat. no. R2070). 2 μg of total RNA was directly used for single strand cDNA synthesis with Superscript III reverse transcriptase (Invitrogen cat. no. 18080-093) according to the manufacturer's protocols. The conditions for RT-PCR were 95° C./5 min, 35-40 cycles of 95° C./30 sec, 56-60° C./60 sec, 72° C./60 sec. Quantification of target gene expression was performed in a LightCycler480 instrument (Roche) using SsoAdvanced Universal SYBR green Supermix (Biorad cat. no. 172-5271) according to the manufacturer's instructions. See Table 4 for primer sequences and conditions used for experiments for RT-PCR, qRT-PCR, bisulfite genomic sequencing, ChIP-qPCR, and chromatin accessibility assay.

PWS-IC [6] = experiment: Bisulfite genomic sequencing of PWS-IC, liver of PWS mice; assay type: in vivo; conditions: livers from PWS mouse models
Protocol: as §1

## COc1cc2c(NC3CCN(C(C)C)CC3)nc(C3CCCCC3)nc2cc1OCCCN1CCCC1 [UNC0638]
Human PWS fibroblasts [1]
  SNRPN protein, of normal levels: approximately 30%
[2]
  cytotoxicity: minimal cytotoxicity
PWS-IC [3]
  DNA methylation of the PWS-IC: did not significantly alter
Human PWS fibroblasts [4]
  chromatin accessibility across the imprinted domains incl. SNRPN and SNORD116: more open and accessible

## COc1cc2c(NC3CCN(C(C)C)CC3)nc(N3CCC(F)(F)CC3)nc2cc1OCCCN1CCCC1 [UNC0642]
m+/pΔS-U and WT mice; WT mice
  loss of body weight: not observed
m+/pΔS-U and WT mice; blinded
  general health and neurological screening: did not reveal any substantial abnormalities
m+/pΔS-U and WT mice; brain, liver, kidney, lung and heart, P90 / 3 months
  histopathological analyses: did not reveal any abnormalities; also recorded: no significant compound related lesions
m+/pΔS-U and WT mice; treated m+/pΔS-U and WT mice
  hematological analysis (liver and kidney functions, lipid and protein metabolism): within normal ranges
[5]
  maternal expression of Snrpn-EGFP: long lasting effect
PWS-IC [6]
  DNA methylation of the PWS-IC: did not significantly alter
